Laboratory results as given in ChEMBL document CHEMBL1201862, “PubChem BioAssay data set” (2004).
Calls of active or inactive are those of the source. Rule as the data show it, for most assays here: actives have a measured EC50 and inactives only a lower limit.

Columns and labels:
Paired box protein Pax-8 = Paired box protein Pax-8 (Homo sapiens, UniProt Q06710); assay: inhibitors of PAX8-driven TPO luciferase reporter, dose response, RMG-I cells, cherry-pick (AID 687027); assay type: functional, cell-based;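 also: luciferase reporter driven by Pax8 target thyroperoxidase promoter measured by SteadyGlo luminescence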
[1] = molecular target: T1, Corticotropin-releasing factor receptor 2/Corticotropin-releasing factor-binding protein (Homo sapiens, UniProt P24387+Q13324); assay: Dose Response confirmation of uHTS hits for small molecule antagonists of the CRF-binding protein and CRF-R2 receptor complex.; assay type: functional; settings: read-out: IC50_Mean
T1 sequence (Q13324 whole entry): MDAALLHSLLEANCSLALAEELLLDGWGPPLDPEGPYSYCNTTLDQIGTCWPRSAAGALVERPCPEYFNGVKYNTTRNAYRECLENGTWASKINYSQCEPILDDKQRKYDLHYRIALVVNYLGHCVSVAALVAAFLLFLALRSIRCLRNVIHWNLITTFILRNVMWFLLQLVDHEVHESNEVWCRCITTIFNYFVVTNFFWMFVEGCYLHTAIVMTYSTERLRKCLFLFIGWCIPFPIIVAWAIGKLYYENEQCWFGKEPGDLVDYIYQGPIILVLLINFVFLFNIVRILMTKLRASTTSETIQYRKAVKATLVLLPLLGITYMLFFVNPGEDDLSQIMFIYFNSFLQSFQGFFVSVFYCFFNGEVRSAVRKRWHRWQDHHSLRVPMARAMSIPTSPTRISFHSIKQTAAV
T1 sequence (P24387 whole entry): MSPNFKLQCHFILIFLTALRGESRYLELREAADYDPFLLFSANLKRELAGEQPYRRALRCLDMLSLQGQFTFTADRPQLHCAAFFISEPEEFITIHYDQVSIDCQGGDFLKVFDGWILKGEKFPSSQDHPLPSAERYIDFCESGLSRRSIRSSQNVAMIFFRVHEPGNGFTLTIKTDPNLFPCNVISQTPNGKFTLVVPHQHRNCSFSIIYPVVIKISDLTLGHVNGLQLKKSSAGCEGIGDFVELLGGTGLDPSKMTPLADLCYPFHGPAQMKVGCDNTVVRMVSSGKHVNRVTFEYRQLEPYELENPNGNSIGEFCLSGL

[2] = molecular target: T1, Corticotropin-releasing factor receptor 2/Corticotropin-releasing factor-binding protein; assay: activators of CRF receptor 2 with binding protein – uHTS hits, confirmation (AID 602473); assay type: functional; settings: read-out: EC50_Mean
Protein skinhead-1 = molecular target: T2, Protein skinhead-1 (Caenorhabditis elegans, UniProt P34707); assay type: functional
T2 sequence (P34707 whole entry): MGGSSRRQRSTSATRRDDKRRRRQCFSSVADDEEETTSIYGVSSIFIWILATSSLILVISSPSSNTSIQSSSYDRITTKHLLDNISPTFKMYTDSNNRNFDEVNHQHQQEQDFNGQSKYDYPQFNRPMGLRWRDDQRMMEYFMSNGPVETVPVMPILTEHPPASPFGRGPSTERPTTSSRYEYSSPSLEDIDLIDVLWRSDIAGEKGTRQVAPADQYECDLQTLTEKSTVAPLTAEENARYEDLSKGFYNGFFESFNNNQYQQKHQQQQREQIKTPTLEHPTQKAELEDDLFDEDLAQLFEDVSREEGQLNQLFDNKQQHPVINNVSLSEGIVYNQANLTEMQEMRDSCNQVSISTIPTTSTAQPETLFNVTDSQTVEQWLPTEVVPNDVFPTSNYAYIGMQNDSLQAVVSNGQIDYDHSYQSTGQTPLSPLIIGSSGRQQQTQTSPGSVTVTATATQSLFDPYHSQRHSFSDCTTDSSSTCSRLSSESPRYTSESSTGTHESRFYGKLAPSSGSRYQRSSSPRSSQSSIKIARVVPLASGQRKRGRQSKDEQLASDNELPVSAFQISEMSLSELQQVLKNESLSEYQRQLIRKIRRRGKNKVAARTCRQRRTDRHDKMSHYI

Streptococcus = assay: Group A Streptococcus viability loss, dose response, counter-screen for streptokinase expression inhibitor project, luminescence, BacTiterGlo (AID 1915); assay type: functional, organism-based;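 also: potency for reduction of bacterial viability or growth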
[3] = Luminescence Cell-Based Dose Response HTS to Identify Inhibitors of 5'UTR Stem-Loop Driven Prion Protein mRNA Translation in H4 Neuroglioblastoma Cells. [Related pubchem assays: 1827 (Project Summary), 1813 (Primary HTS)]; assay type: functional
[4] = inhibitors of SNCA 5'UTR-driven reporter translation, confirmation, H4 neuroglioma cells, luminescence (AID 1988); assay type: functional, cell-based
[5] = system: Streptococcus sp. 'group A'; assay: growth inhibition of control SK(-) GAS strain, dose response, counter-screen for streptokinase expression inhibitor project, luminescence, kanamycin, BacTiterGlo, confirmation (AID 1900); assay type: functional, organism-based
[6] = inhibitors of firefly luciferase expression or activity, dose response, H4 neuroglioma cells, luminescence (AID 1990); assay type: functional, cell-based
[7] = molecular target: T3, Heat shock factor protein 1 (Mus musculus, UniProt P38532); assay: HSF1 potentiators in luciferase reporter cells, confirmation, cell-based, NIH3T3, luminescence, dose retest (AID 435004); assay type: functional;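 also: stress induced by proteasome inhibitor MG132 added 30 min after compound; luciferase reporter driven by HSF1 response element in NIH3T3 cells; actives raise luminescence as potentiators of the MG132 stress response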
T3 sequence (P38532 whole entry): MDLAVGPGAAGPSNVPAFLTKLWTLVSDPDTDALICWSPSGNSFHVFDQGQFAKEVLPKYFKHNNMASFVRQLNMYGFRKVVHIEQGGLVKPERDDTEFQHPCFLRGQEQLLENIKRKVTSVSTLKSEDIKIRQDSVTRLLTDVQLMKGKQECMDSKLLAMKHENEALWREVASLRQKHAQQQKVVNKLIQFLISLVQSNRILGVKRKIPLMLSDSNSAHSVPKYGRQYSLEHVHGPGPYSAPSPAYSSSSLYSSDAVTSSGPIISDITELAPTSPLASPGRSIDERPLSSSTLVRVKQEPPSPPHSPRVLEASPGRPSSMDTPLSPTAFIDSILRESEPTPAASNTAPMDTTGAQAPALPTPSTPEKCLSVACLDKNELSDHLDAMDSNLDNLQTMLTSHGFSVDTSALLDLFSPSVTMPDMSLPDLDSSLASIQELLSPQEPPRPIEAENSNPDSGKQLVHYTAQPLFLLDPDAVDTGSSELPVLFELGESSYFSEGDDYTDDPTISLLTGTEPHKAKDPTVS

H4 = assay: Luminescence Cell-Based Dose Response HTS to Identify Activators of 5'UTR Stem-Loop Driven Prion Protein mRNA Translation in H4 Neuroglioblastoma Cells. [Related pubchem assays: 1829 (Project Summary), 1814 (Primary HTS)]; assay type: functional; settings: Homo sapiens
[8] = Luminescence Cell-Based Dose Response HTS to Identify Activators of Luciferase Translation or Activity in H4 […] Cells. [Related pubchem assays: 1829 (Project Summary), 1814 (Primary HTS)]; assay type: functional
BJ [9] = assay: cells; assay type: functional, cell-based; settings: Homo sapiens
[10] = cytotoxicity toward DRD oncogenic fibroblasts, dose response, cell-based, non-viral oncogenic, luminescence (AID 1934); assay type: functional; settings: Homo sapiens
BJ [11] = assay: cytotoxicity toward BJ-TERT fibroblasts, dose response, cell-based, RAS-independent, luminescence (AID 1933); assay type: functional; settings: Homo sapiens
BJ [12] = assay: cytotoxicity toward BJ-TERT-LT-ST fibroblasts, dose response, cell-based, RAS-independent, luminescence (AID 1935); assay type: functional; settings: Homo sapiens;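 also: BJ fibroblasts immortalized with TERT plus LT and ST oncogenes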

Sequence of Paired box protein Pax-8 (Q06710 whole entry): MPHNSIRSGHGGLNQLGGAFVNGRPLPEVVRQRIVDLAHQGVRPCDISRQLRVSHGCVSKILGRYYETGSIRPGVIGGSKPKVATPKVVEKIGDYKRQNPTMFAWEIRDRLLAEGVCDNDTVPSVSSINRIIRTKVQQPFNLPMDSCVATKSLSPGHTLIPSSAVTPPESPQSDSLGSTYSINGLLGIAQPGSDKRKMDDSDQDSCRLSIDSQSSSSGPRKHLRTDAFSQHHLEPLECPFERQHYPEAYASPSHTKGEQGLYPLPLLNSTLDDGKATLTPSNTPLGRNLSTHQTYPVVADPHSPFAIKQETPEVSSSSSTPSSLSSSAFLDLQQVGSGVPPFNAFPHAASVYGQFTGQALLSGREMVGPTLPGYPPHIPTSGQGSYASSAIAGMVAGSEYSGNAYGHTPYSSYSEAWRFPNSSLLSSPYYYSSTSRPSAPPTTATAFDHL

For `C[C@H]1CCCCO[C@H](CN(C)C(=O)Nc2ccc(C(F)(F)F)cc2)[C@@H](C)CN([C@@H](C)CO)C(=O)c2cc(NS(=O)(=O)c3cccs3)ccc2O1`, the AC50 (Paired box protein Pax-8) was 7.75 µM (active).

With `Cc1nn(C(C)C(=O)O)c(=O)c2ccccc12` (stereo not given) the IC50 [1] was > 47.1 µM (inactive) and the EC50 [2] was > 53 µM (inactive).

With `C=CCN(c1ccc(C(=O)NC(C)C)cc1)S(C)(=O)=O` the IC50 (Protein skinhead-1) was > 100 µM (inactive).

With `CCn1c2ccc(F)cc2c2nc3ccccc3nc21` the IC50 (Protein skinhead-1) was > 100 µM (inactive).

With `C[C@H](O)[C@@H]1CN2CCc3c([nH]c4ccc(-c5ccc6c(c5)OCO6)cc34)[C@@H]2C[C@@H]1N(C)C(=O)NC1CCCCC1` the AC50 (Paired box protein Pax-8) was 5.9 µM (active).

In the case of `O=C(N/N=C/c1ccccc1O)c1cccc2ccccc12`, the EC50 (Streptococcus) is reported as 6.12 µM (active), the EC50 [3] is reported as 17.1 µM (active) and the EC50 [4] is reported as 6.71 µM (active). For the same compound, the EC50 [5] was 1.58 µM (active) and the EC50 [6] was 2.12 µM (active).

In the case of `O=C(c1ccc(Br)cc1)N1CCN(c2ncccn2)CC1`, the IC50 [1] is reported as > 47.1 µM (inactive) and the EC50 [2] is reported as > 53 µM (inactive).

In the case of `CN(C)c1ccc(/C=C(/C#N)C(=O)Nc2nc3c(s2)CCN(Cc2ccccc2)C3)cc1`, the EC50 [2] is reported as 2.1 µM (active) and the IC50 (Protein skinhead-1) is reported as > 100 µM (inactive).

For `O=C(c1ccc2c(=O)n3c(nc2c1)CCCCC3)N1CCN(C(c2ccccc2)c2ccccc2)CC1`, the EC50 [3] was 28.3 µM (active), the EC50 [4] was 24.1 µM (active) and the EC50 [6] was 12.7 µM (active). The EC50 [7] was > 260 µM (inactive).

For `O=C(COC(=O)CC1c2ccccc2CCN1S(=O)(=O)c1ccc(F)cc1)Nc1ccccc1` (stereo not given), the IC50 [1] was > 47.1 µM (inactive) and the EC50 [2] was > 53 µM (inactive).

In the case of `CCCC1(CCC)NC(=O)N(CC(=O)Nc2ccc(Cl)c(S(=O)(=O)N3CCOCC3)c2)C1=O`, the IC50 [1] is reported as > 47.1 µM (inactive) and the EC50 [2] is reported as > 53 µM (inactive).

In the case of `Cc1cc(C(=O)CN2C(=O)NC3(CCCc4ccccc43)C2=O)c(C)n1Cc1ccccc1` (stereo not given), the IC50 (Protein skinhead-1) is reported as > 100 µM (inactive).

For `COc1cc(/C=N/NC(=O)c2ccc(CN3C(=O)c4cccc5cccc3c45)cc2)cc(OC)c1O`, the AC50 (Paired box protein Pax-8) was 0.286 µM (active).

For `O=c1c2cc(-c3ccccc3)sc2ncn1/N=C/c1ccco1`, the IC50 (Protein skinhead-1) was 22.1 µM (active), the EC50 (H4) was 56.4 µM (active) and the EC50 [8] was 14.8 µM (active).

With `C[C@@H]1CN([C@@H](C)CO)C(=O)c2cccc(NC(=O)c3ccncc3)c2O[C@@H]1CN(C)S(=O)(=O)c1cccs1` the AC50 (Paired box protein Pax-8) was 69.5 µM (active).

With `Cc1cc(N2CCN(Cc3cn(C)nc3-c3cccc(Cl)c3)CC2)cc(C)n1` the EC50 [3] was 8.87 µM (active), the EC50 (BJ [9]) was 18.7 µM (active) and the EC50 [4] was 10.6 µM (active). The EC50 [10] was 11.8 µM (active), the EC50 (BJ [11]) was 11.3 µM (active) and the EC50 (BJ [12]) was > 150 µM (inconclusive). The EC50 [6] was 10.4 µM (active).

With `N#C/C(=C\c1cccnc1)c1ccc(Br)cc1` the IC50 (Protein skinhead-1) was > 100 µM (inactive).

With `COc1ccc(CN(Cc2cc3cc4c(cc3nc2O)OCO4)C(=O)NC2CCCCC2)cc1` the EC50 [3] was > 120 µM (not active), the EC50 [4] was > 120 µM (not active) and the EC50 [6] was 17.8 µM (active).
